Laboratory results taken from patent US8304182B2, “Methods of identifying anti-cancer agents and uses thereof” (The Trustees of the University of Pennsylvania, priority 2003, dated 2012).

Legend:
bax^−/−bak^−/− MEFs = type: cell-based, mouse
ATP = experiment: Determination of cellular ATP; type: cell-based, mouse
[1] = type: cell-based, mouse
p53^−/− MEFs = type: cell-based, mouse
[2] = system: Mouse bone marrow derived macrophages; type: cell-based

O=c1[nH]ccc2c(O)cccc12 [DHIQ]
effect on MNNG-induced cell death rate (parp-1^−/− MEFs): did not affect the cell death rate
block of MNNG-induced cell death (bax^−/−bak^−/− MEFs): fully

O=C1NCCc2c(OCCCCN3CCCCC3)cccc21 [DPQ]
prevention of MNNG-induced ATP depletion (ATP): could be prevented
prevention of MNNG-induced NAD depletion [1]: could be prevented

COc1cc([C@@H]2c3cc4c(cc3[C@@H](O[C@@H]3O[C@@H]5CO[C@@H](C)O[C@H]5[C@H](O)[C@H]3O)[C@H]3COC(=O)[C@H]23)OCO4)cc(OC)c1O [etoposide]
cell death (cell survival by PI exclusion) (p53^−/− MEFs): resistant
cell death (cell survival by PI exclusion) (bax^−/−bak^−/− MEFs): resistant

CN[C@@H]1C[C@H]2O[C@@](C)([C@@H]1OC)n1c3ccccc3c3c4c(c5c6ccccc6n2c5c31)C(=O)NC4 [staurosporine]
cell death (cell survival by PI exclusion) (p53^−/− MEFs): induced cell death
cell death (parp-1^−/− MEFs; parp-1^−/− cells, staurosporine, FIG. 3F): killed
cell death (bax^−/−bak^−/− MEFs): no cell death was observed
TNFα production by macrophages [2]: failed to do so
